Like-named read-outs stand apart in the source and are kept apart here.

The subject of experiment [1] is Daoy cell. The experiment can be described thus: Mitochondria membrane potential difference by TMRM, Daoy cell. It counts as cell-based, human. An excerpt: (§1) For cells with active mitochondria permeability transition pore, adding peroxide (such as H2O2) could increase the activity of mitochondria permeability transition pore, resulting in a decrease in mitochondria membrane potential.
(§2) The mitochondria membrane potential difference was detected by Tetramethylrhodamine (TMRM), the high fluorescence intensity of TMRM represented the high membrane potential difference.

Experiment [2] relates to NCI-H82 cell. The experiment can be described thus: Mitochondria membrane potential difference by TMRM, NCI-H82 cell. Format: cell-based.
Description: as §1, §2

Experiment [3] has as its system oxidative phosphorylation pathway of mitochondria. The experiment can be described thus: Cellular oxygen consumption (OCR), XFe metabolic analysis system. Format: cell-based. The note with it: NCI-H82 cell; 118.2 μM; within half an hour; FIG. 1. Here is the method:
The oxygen required by cell was mainly consumed in the mitochondria respiratory chain, so the measurement of cellular oxygen consumption (OCR, oxygen consumption rate) could directly reflect the activity of the oxidative phosphorylation pathway of mitochondria. In this experiment, the XFe metabolic analysis system was used to measure the oxygen consumption of NCI-H82 cell in the presence or absence of Compound SJ2858 (baicalein) and Compound SJ2775 (baicalin).
Rotenone (abbreviated as RO, 0.5 μM) is a known inhibitor of mitochondria oxidative phosphorylation pathway complex I, Antimycin A (abbreviated as AA, 0.5 μM) is a known inhibitor of mitochondria oxidative phosphorylation pathway complex III. Compound SJ2858, 73.2 μM; Compound SJ2775, 118.2 μM.

Experiment [4] relates to Daoy cell. The experiment can be described thus: Cell viability, Promega CellTiter-Glo, Daoy cell. It counts as cell-based, human. The note with it: read-out: IC50 of cell viability inhibition. As to the method: (§3) Cell viability was detected by using the Promega CellTiter-Glo kit, the kit reflected cell viability by directly measuring intracellular ATP content. […] Daoy cell and NCI-H82 cell were cultured in DMEM containing 10% FBS (plus p/s).
A general note: Cellular ATP, detected with luciferase, serves as a proxy for viable cell number.

Experiment [5] deals with NCI-H82 cell. The experiment in a line: Cell viability, Promega CellTiter-Glo, NCI-H82 cell. The note with it: NCI-H82 cell without CSA (inactive mPTP); read-out: IC50 of cell viability inhibition. It counts as cell-based. As to the method: as §3

On to `OO` [Compound H2O2, H2O2], for which the “Effect on membrane potential (in words)” value in experiment [1] is “down-regulated”; in experiment [2] it was “not affected”. The “Relative TMRM signal intensity (%), mean value” was determined as 82% in experiment [1] (H2O2 +, CsA −) and 119% in experiment [2] (H2O2 +, CsA −).
As a reminder, the IC50 is the point on the concentration scale where inhibition reaches its midpoint. With `O=C(O)[C@H]1O[C@@H](Oc2cc3oc(-c4ccccc4)cc(=O)c3c(O)c2O)[C@H](O)[C@@H](O)[C@@H]1O` [Compound SJ2775, baicalin], the “Inhibition of oxygen consumption (in words)” value in experiment [3] is reported as “significantly inhibit”. Besides, the IC50 in experiment [4] (Daoy cell with CSA (1.5 μM mPTP inhibitor)) was 45.4 µM; in experiment [4] (Daoy cell without CSA (active mPTP)) it was more than 100 µM; in experiment [5], 38.6 µM.
